# Laboratory results published in patent US20130266557A1, “METHODS FOR TREATMENT OF A SARCOMA USING AN EPIMETABOLIC SHIFTER (COENZYME Q10)” (priority 2009, published 2013).
# Read-outs that look alike come from different tables or passages of the source.
# Columns and labels:
# [1] = cited from earlier work
# cancer patients = settings: eight case histories, oral CoQ10; cited from earlier work
# [2] = rats, oral; cited from earlier work
# [3] = test system: Ewing Sarcoma cell lines (JDT, 0808); assay: Combined antibody array, 2-D gel/MS and real time PCR microarray; assay type: cell-based; settings: in response to CoQ10 treatment
# Description: Functional groups were identified using “The Database for Annotation, Visualization and Integrated Discovery’ [DAVID] that subdivided the genes in 42 major clusters. Maximum number of genes from the list were segregated within the “Regulation of Cellular Process” and “Metabolic Process” functional groups with the other proteins spread over functional groups including regulation of transcription, programmed cell death, cell development, cytoskeleton, nucleus, proteosome and organ development.
# normal fibroblast = assay: Bcl2 level on co-administration with VEGF; assay type: cell-based; settings: co-administration of CoQ-10 and VEFG
# Description: The term “Multidimensional Intracellular Molecule (MIM)”, is an isolated version or synthetically produced version of an endogenous molecule that is naturally produced by the body and/or is present in at least one cell of a human. A MIM is capable of entering a cell and the entry into the cell includes complete or partial entry into the cell as long as the biologically active portion of the molecule wholly enters the cell. MIMs are capable of inducing a signal transduction and/or gene expression mechanism within a cell. MIMs are multidimensional because the molecules have both a therapeutic and a carrier, e.g., drug delivery, effect. MIMs also are multidimensional because the molecules act one way in a disease state and a different way in a normal state.
# mitochondrial complex II = mitochondrial complex II (Homo sapiens, UniProt O14521+P21912+Q99643); settings: cancer cells; Mazzio and Soliman 2004; cited from earlier work
# Chain of mitochondrial complex II (P31040 43-664 partner): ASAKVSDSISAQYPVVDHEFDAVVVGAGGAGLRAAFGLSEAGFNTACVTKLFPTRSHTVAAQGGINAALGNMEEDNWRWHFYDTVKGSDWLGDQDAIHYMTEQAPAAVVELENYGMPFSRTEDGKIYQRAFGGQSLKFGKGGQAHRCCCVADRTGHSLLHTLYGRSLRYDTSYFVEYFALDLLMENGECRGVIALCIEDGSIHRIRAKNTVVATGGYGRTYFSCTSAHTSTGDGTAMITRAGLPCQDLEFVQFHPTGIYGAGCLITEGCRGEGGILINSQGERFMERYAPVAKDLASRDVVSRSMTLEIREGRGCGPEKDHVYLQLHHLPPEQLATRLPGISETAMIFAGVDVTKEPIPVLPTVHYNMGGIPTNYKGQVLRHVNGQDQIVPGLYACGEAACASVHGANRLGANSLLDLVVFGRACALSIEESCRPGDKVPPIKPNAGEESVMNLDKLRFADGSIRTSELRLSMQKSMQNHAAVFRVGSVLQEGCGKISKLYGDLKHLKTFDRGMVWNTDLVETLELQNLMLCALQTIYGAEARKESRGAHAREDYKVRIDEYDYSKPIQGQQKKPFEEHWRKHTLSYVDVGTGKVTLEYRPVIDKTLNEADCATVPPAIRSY
# Chain of mitochondrial complex II (P21912 29-280): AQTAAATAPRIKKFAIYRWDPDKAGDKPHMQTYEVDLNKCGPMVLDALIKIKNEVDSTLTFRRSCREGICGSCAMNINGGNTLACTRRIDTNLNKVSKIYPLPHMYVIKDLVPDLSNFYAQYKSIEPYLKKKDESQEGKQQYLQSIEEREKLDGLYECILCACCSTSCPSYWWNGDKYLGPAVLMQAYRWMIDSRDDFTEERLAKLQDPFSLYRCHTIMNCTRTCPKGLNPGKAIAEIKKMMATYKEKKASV
# Chain of mitochondrial complex II (Q99643 30-169): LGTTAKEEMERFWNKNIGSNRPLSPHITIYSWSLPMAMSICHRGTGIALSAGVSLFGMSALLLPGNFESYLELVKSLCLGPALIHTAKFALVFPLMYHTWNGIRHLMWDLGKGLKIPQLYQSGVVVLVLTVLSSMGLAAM
# Chain of mitochondrial complex II (O14521 57-159): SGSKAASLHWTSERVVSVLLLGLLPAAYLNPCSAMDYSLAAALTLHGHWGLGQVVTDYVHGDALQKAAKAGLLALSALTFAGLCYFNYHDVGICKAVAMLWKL
substance,measurement,setting,value
Coenzyme Q10 [CoQ10],Share of CoQ10 in the reduced form,[1]; blood (plasma),~96%
same,Share of CoQ10 in the reduced form,[1]; heart,about 61%
same,Share of CoQ10 in the reduced form,[1]; intenstine,~95%
same,Share of CoQ10 in the reduced form,[1]; kidney,~75%
same,Share of CoQ10 in the reduced form,[1]; liver,~95%
same,Share of CoQ10 in the reduced form,[1]; muscle,~65%
same,Survival of cancer patients on therapy with CoQ10,cancer patients,5-15 years
same,Fraction of orally-administered CoQ10 absorbed,[2],2-3%
same,Number of gene products whose expression is significantly influenced,[3],over 90
same,Share of identified gene products down-regulated,[3],~40%
same,Share of identified gene products up-regulated,[3],approximately 60%
same,Level of Bcl2,normal fibroblast,no effect on the levels of Bcl2
same,Effect on Vmax of mitochondrial complex II activity,mitochondrial complex II,increase the Vmax of mitochondrial complex II activity
